According to ChEMBL document CHEMBL4334526, “Synthesis of Peptoid-Based Class I-Selective Histone Deacetylase Inhibitors with Chemosensitizing Properties” (J Med Chem, 2019):
The source made the active and inactive calls. The rule behind the calls is not given here.

Key:
Histone deacetylase [1] = experiment: Inhibition of HDAC in human CAL27 cells using Boc-Lys(epsilon-Ac)-AMC as substrate preincubated for 18 hrs followed by substrate addition and measured after 3 hrs by fluorescence assay; type: cell-based
A2780 [2] = experiment: Cytotoxicity against human A2780 cells assessed as reduction in cell survival measured after 72 hrs by MTT assay; type: functional, cell-based; conditions: A2780, 72 h
[3] = target: Histone deacetylase 3/Nuclear receptor corepressor 2 (HDAC3/NCoR2) (Homo sapiens, UniProt O15379); experiment: biochemical; type: cell-based, Sf9
Description: Inhibition of human recombinant full length C-terminal His-tagged HDAC3 (1 to 428 residues)/N-terminal GST-tagged NCOR2 (395 to 489 residues) expressed in baculovirus infected Sf9 insect cells using Boc-Lys(epsilon-acetyl)-AMC as substrate incubated for 90 mins by fluorescence assay

Histone deacetylase 2 [4] = target: T1, Histone deacetylase 2 (Homo sapiens, UniProt Q92769); experiment: Inhibition of recombinant human full length C-terminal FLAG-tagged HDAC2 expressed in baculovirus infected Sf9 insect cells using Boc-Lys(epsilon-acetyl)-AMC as substrate incubated for 90 mins by fluorescence assay; type: cell-based
CAL-27 [5] = experiment: Cytotoxicity against human CAL27 cells assessed as reduction in cell survival measured after 72 hrs by MTT assay; type: functional, cell-based; conditions: CAL-27, 72 h
Histone deacetylase [6] = experiment: Inhibition of HDAC in human A2780 cells using Boc-Lys(epsilon-Ac)-AMC as substrate preincubated for 18 hrs followed by substrate addition and measured after 3 hrs by fluorescence assay; type: cell-based
Histone deacetylase 1 = Histone deacetylase 1 (Homo sapiens, UniProt Q13547); experiment: Inhibition of recombinant human full length C-terminal His/FLAG-tagged HDAC1 expressed in baculovirus infected Sf9 insect cells using ZMAL as substrate incubated for 90 mins by fluorescence assay
[7] = target: T2, Protein deacetylase HDAC6 (Homo sapiens, UniProt Q9UBN7); experiment: Inhibition of human full length N-terminal GST-tagged HDAC6 expressed in baculovirus infected Sf9 insect cells ZMAL as substrate incubated for 90 mins by fluorescence assay; type: cell-based
T2 sequence (Q9UBN7 whole entry): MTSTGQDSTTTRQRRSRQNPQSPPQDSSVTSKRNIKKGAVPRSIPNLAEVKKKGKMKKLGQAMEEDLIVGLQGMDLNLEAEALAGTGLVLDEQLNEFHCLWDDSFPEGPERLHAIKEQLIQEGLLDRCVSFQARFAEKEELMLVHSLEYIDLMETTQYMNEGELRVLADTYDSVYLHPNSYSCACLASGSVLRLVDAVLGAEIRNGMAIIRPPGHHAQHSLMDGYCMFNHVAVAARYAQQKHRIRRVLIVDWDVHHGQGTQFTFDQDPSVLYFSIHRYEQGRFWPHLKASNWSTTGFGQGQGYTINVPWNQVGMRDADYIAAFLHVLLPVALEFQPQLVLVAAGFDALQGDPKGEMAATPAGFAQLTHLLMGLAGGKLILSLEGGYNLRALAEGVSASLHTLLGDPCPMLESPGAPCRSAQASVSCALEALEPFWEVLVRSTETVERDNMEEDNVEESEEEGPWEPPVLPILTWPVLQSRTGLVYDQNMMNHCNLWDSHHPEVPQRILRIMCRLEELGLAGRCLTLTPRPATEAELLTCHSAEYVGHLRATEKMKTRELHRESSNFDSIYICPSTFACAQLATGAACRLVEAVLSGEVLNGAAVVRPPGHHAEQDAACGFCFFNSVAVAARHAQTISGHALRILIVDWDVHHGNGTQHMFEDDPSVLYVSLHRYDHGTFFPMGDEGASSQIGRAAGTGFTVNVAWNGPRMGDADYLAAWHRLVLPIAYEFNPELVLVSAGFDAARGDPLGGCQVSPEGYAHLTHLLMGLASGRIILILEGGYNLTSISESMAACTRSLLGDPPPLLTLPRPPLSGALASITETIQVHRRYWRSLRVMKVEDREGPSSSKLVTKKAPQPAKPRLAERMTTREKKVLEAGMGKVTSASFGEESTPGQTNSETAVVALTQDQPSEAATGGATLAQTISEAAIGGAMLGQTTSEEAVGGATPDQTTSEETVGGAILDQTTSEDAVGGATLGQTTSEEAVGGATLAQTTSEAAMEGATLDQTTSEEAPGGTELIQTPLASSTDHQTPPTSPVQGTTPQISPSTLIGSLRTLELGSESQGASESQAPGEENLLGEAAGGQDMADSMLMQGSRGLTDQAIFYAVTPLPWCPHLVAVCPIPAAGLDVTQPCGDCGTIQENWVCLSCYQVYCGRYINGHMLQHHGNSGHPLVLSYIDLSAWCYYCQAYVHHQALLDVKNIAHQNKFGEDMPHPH

CAL-27 [8] = experiment: Potency index, ratio of vorinostat IC50 to test compound IC50 for cytotoxicity against human CAL27 cells; type: functional
[9] = target: Histone deacetylase 3/Nuclear receptor corepressor 2 (HDAC3/NCoR2) (Homo sapiens) (UniProt O15379+Q9Y618); experiment: Inhibition of human recombinant full length C-terminal His-tagged HDAC3 (1 to 428 residues)/N-terminal GST-tagged NCOR2 (395 to 489 residues) expressed in baculovirus infected Sf9 insect cells at 10 uM using Boc-Lys(epsilon-acetyl)-AMC as substrate incubated for 90 mins by fluorescence assay relative to control
Histone deacetylase 2 [10] = target: T1, Histone deacetylase 2; experiment: Inhibition of recombinant human full length C-terminal FLAG-tagged HDAC2 expressed in baculovirus infected Sf9 insect cells at 10 uM using Boc-Lys(epsilon-acetyl)-AMC as substrate incubated for 90 mins by fluorescence assay relative to control
A2780 [11] = experiment: Cytotoxicity against human A2780 cells assessed as reduction in cell survival up to 100 uM measured after 72 hrs by MTT assay; type: functional, cell-based
Histone deacetylase 2 [12] = target: T1, Histone deacetylase 2; experiment: Inhibition of recombinant human full length C-terminal FLAG-tagged HDAC2 expressed in baculovirus infected Sf9 insect cells at 3.33 uM using Boc-Lys(epsilon-acetyl)-AMC as substrate incubated for 90 mins by fluorescence assay relative to control

T1 sequence (Q92769 whole entry): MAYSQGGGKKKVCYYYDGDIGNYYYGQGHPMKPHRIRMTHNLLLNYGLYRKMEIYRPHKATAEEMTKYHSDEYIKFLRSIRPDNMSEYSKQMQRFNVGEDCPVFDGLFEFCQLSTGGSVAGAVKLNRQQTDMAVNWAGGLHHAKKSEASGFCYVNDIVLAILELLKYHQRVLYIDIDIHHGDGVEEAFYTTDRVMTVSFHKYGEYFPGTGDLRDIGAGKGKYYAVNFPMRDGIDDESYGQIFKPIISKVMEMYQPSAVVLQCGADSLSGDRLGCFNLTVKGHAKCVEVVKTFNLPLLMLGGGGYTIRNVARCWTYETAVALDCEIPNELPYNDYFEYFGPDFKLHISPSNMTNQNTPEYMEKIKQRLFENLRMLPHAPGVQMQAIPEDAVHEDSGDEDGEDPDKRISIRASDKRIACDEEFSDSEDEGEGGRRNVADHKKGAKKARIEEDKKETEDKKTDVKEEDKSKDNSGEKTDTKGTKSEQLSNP
Chain of Histone deacetylase 3/Nuclear receptor corepressor 2 (HDAC3/NCoR2) (O15379 whole entry): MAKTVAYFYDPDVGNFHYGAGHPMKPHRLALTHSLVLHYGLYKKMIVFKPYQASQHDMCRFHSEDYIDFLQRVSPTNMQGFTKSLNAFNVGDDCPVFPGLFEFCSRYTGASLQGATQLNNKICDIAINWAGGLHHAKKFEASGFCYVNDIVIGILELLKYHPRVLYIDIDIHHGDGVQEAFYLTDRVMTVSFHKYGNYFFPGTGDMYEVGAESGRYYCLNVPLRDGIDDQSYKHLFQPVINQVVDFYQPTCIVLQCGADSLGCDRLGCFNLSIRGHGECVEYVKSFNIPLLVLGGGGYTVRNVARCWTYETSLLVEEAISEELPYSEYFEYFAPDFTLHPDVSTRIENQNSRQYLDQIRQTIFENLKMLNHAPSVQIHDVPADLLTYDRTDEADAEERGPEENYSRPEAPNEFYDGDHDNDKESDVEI
Chain of Histone deacetylase 3/Nuclear receptor corepressor 2 (HDAC3/NCoR2) (Q9Y618 whole entry, further chain): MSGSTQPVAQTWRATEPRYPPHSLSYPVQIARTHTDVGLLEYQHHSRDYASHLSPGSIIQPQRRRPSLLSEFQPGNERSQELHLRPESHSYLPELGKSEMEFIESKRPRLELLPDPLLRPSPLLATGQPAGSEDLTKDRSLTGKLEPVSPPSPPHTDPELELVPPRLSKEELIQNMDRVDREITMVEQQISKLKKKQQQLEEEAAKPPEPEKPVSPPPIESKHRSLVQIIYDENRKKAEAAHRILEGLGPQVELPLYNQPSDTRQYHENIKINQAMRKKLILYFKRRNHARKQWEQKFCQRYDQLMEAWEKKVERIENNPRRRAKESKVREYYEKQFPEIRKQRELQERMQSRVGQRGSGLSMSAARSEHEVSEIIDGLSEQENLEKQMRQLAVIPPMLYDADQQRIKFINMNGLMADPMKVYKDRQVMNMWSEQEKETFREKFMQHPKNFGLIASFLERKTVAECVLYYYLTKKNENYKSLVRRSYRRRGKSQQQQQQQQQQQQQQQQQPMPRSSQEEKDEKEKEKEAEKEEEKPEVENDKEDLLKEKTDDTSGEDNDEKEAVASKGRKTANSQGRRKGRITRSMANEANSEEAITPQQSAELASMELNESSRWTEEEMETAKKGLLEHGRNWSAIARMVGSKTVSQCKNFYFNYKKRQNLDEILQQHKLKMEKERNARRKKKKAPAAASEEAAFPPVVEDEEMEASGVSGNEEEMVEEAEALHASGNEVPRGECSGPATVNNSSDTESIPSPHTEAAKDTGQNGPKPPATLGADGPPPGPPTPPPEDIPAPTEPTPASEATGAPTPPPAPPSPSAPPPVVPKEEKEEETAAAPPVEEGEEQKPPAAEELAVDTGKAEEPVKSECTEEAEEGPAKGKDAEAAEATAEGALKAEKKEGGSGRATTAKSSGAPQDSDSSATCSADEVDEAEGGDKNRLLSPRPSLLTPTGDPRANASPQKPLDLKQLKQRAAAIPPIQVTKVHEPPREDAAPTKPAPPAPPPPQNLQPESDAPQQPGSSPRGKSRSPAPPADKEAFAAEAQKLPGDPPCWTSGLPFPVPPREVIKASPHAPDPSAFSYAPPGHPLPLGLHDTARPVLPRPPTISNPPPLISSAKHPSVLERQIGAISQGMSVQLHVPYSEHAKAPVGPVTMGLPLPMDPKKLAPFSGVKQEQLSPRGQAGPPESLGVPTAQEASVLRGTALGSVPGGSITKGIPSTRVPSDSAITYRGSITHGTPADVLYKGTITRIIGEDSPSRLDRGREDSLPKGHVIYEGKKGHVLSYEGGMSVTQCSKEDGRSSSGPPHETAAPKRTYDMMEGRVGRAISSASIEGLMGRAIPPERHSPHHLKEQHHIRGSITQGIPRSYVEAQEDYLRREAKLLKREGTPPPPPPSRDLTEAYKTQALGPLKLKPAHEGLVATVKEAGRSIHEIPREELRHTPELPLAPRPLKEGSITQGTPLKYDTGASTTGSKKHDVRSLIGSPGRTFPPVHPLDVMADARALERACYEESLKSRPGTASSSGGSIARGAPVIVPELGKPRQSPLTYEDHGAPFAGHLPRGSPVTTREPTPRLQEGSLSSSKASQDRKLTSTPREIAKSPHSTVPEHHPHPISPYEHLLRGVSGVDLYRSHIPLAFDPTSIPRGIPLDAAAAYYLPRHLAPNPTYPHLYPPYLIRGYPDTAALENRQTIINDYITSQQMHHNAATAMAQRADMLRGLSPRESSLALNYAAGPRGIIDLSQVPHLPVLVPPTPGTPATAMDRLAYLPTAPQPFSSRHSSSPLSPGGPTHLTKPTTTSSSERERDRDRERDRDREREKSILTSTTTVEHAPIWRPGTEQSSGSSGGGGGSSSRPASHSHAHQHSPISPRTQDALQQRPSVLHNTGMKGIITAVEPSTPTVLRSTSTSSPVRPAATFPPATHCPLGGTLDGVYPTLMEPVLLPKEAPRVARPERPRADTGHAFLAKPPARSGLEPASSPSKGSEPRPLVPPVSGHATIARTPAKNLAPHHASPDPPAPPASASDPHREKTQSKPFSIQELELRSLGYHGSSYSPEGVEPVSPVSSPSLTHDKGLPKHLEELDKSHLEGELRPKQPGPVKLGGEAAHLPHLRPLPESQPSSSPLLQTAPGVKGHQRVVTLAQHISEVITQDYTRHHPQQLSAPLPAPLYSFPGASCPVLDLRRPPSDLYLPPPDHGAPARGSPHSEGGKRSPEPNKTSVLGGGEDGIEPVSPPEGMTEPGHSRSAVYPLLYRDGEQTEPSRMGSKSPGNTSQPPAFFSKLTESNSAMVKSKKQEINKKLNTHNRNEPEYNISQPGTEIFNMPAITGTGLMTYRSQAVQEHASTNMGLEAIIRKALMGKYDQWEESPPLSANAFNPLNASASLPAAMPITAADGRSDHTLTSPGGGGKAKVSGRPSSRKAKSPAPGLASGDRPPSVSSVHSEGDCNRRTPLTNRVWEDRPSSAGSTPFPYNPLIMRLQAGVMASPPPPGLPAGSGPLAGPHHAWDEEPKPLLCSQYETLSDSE
Chain of Histone deacetylase 1 (Q13547 whole entry): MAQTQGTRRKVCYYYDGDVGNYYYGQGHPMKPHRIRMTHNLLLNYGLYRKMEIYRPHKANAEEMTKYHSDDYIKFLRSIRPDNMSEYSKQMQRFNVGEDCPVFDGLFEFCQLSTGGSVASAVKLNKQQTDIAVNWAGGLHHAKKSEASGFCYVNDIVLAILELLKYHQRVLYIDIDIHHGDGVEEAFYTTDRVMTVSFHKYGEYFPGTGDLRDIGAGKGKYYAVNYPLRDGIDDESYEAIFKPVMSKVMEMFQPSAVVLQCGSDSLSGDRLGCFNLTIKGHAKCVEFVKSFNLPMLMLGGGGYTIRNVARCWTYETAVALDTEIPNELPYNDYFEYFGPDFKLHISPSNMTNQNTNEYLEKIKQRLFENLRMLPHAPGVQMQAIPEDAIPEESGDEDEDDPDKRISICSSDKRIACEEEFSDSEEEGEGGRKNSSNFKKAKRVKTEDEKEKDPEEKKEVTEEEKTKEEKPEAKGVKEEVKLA

| IC50 (Histone deacetylase [1]) [µM] | IC50 [3] [µM] | IC50 (Histone deacetylase 2 [4]) [µM] | IC50 (Histone deacetylase [6]) [µM] | IC50 (Histone deacetylase 1) [µM] | IC50 [7] [µM] | inhibition [9] [%] | inhibition (Histone deacetylase 2 [10]) [%] | inhibition (Histone deacetylase 2 [12]) [%] | Structure (SMILES) | IC50 (A2780 [2]) [µM] | IC50 (CAL-27 [5]) [µM] | Ratio IC50 (CAL-27 [8]) | Activity (A2780 [11]) |
| --- | --- | --- | --- | --- | --- | --- | --- | --- | --- | --- | --- | --- | --- |
| 3.15 | 0.583 | 4.1 | 3.17 | 0.484 | > 10 |  |  |  | Cc1cc(C)cc(CNC(=O)CN(CCCCCC(=O)Nc2ccccc2N)C(=O)c2cc(C)cc(C)c2)c1 | 5.1 | 19.3 |  |  |
| 3.93 | 0.25 | 1.6 | 8.71 | 1.16 | > 10 |  |  |  | Cc1cc(C)cc(C(=O)N(CCCCCC(=O)Nc2ccccc2N)CC(=O)NCc2ccccc2)c1 | 20.9 | 13.7 |  |  |
| 0.18 |  | 0.485 | 0.81 | 0.062 | > 10 | 32 |  |  | Cc1cc(C)cc(C(=O)N(CC(=O)NCc2ccccc2)Cc2ccc(C(=O)Nc3ccccc3N)cc2)c1 | 2.8 | 1.6 | 1.7 |  |
| 4.13 | 0.163 | 1.9 | 10.2 | 1.67 | > 10 |  |  |  | Nc1ccccc1NC(=O)CCCCCN(CC(=O)NCc1ccccc1)C(=O)c1cccc2ccccc12 | 22.8 | 11 |  |  |
| 4.33 | 0.312 | 1.24 | 9.25 | 1.58 | > 10 |  |  |  | CN(C)c1ccc(C(=O)N(CCCCCC(=O)Nc2ccccc2N)CC(=O)NCc2ccccc2)cc1 | 18.5 | 16 |  |  |
| 0.47 |  |  | 1.43 | 0.277 | > 10 | 23 | 25 |  | Cc1cc(C)cc(C(=O)N(CC(=O)NCc2ccccc2)Cc2ccc(C(=O)Nc3cc(F)ccc3N)cc2)c1 | 5.4 | 5.72 |  |  |
| 13 | 0.646 | 5.38 | 33.1 | 6.56 | > 10 |  |  |  | Nc1ccccc1NC(=O)CCCCCN(CC(=O)NC1CCCCC1)C(=O)c1cccc2ccccc12 | 18.1 | 24.9 |  |  |
| 12.1 | 0.481 | 6.66 | 22.8 | 5.55 | > 10 |  |  |  | Cc1cc(C)cc(C(=O)N(CCCCCC(=O)Nc2ccccc2N)CC(=O)NC2CCCCC2)c1 | 42 | 17.5 |  |  |
| 1.01 | 0.878 | 0.786 | 1.06 | 0.103 | > 10 |  |  |  | Nc1ccccc1NC(=O)c1ccc(CN(CC(=O)NCc2ccccc2)C(=O)c2cccnc2)cc1 | 8.9 | 11.2 |  |  |
| 4.81 |  |  | 3.53 | 2.08 | > 10 | 49 | 30 |  | COc1ccc(CNC(=O)CN(CCCCCC(=O)Nc2ccccc2N)C(=O)c2cc(C)cc(C)c2)cc1 | 24.6 | 17.4 |  |  |
| 4.57 | 0.478 | 5.03 | 4.48 | 1.1 | > 10 |  |  |  | Cc1ccc(CNC(=O)CN(CCCCCC(=O)Nc2ccccc2N)C(=O)c2cc(C)cc(C)c2)cc1 | 9.8 | 18.2 |  |  |
| 0.85 | > 10 |  | 2.62 | 0.039 | > 10 | < 15 |  | 36 | CN(C)c1ccc(C(=O)N(CC(=O)NCc2ccccc2)Cc2ccc(C(=O)Nc3cc(-c4ccccc4)ccc3N)cc2)cc1 |  | 11.1 |  | inactive |
| 21.9 | 0.858 | 5.95 | 43.6 | 5.46 | > 10 |  |  |  | Nc1ccccc1NC(=O)CCCCCN(CC(=O)NC1CCCCC1)C(=O)c1ccccc1 | 181 | 30.9 |  |  |
| 6.82 | 0.369 | 3.06 | 13.4 | 1.98 | > 10 |  |  |  | CN(C)c1ccc(C(=O)N(CCCCCC(=O)Nc2cc(F)ccc2N)CC(=O)NCc2ccccc2)cc1 | 25.9 | 20.2 |  |  |
